Patent publication US20200069648A1, “HALOALLYLAMINE PYRAZOLE DERIVATIVE INHIBITORS OF LYSYL OXIDASES AND USES THEREOF” (Pharmaxis Ltd., priority 2017, published 2020)
Structures can show the parent of a compound that is named as a salt.

How the values were obtained:
Bovine LOX = biological target: T1, Bovine LOX (Bos taurus, UniProt P33072); test: LOX amine oxidase inhibition, peroxidase-coupled Amplex Red assay; type: biochemical; settings: 30 min preincubation at 37° C., putrescine substrate
T1 sequence (P33072 170-418): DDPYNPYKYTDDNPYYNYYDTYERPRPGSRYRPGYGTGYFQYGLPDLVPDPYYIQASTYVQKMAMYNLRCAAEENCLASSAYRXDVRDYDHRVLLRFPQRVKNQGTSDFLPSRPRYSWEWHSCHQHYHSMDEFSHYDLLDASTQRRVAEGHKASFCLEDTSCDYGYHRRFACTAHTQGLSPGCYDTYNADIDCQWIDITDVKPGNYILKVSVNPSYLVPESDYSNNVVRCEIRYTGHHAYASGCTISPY
Outline: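 Bovine LOX in 1.2 M urea, 50 mM sodium borate pH 8.2 […]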

[1] = biological target: T2, human recombinant SSAO/VAP-1 (Homo sapiens, UniProt Q16853); test: Human recombinant SSAO/VAP-1 amine oxidase inhibition; type: biochemical; settings: 30 min preincubation at 37° C., 600 μM benzylamine
T2 construct: a cloned cDNA template corresponding to residues 34-763 of human SSAO/VAP-1; TEV cleavage site (N); made in house
T2 sequence (Q16853 34-763): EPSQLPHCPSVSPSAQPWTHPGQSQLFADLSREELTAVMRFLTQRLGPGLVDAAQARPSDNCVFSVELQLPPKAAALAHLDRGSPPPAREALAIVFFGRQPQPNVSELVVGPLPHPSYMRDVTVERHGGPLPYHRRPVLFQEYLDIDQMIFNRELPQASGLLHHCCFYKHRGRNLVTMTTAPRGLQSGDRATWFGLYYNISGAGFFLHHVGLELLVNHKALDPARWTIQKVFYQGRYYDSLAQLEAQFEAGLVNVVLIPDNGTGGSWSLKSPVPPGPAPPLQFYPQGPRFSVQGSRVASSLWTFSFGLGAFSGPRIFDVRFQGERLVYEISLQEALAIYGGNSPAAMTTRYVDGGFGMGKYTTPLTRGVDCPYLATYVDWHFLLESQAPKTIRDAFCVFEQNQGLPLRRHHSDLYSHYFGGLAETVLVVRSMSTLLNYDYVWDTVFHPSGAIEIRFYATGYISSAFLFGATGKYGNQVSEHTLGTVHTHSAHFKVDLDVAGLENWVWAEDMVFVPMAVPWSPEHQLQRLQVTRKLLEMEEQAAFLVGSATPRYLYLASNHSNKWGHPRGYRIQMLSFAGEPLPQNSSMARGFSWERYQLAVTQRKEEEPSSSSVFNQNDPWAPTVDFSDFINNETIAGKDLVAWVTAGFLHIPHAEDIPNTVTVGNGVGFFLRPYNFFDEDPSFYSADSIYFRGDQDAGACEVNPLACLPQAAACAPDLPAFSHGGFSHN
Method: Method to Determine the Ability of Compounds of Formula I to Inhibit Human Recombinant SSAO/VAP-1
Human recombinant SSAO/VAP-1 amine oxidase activity was determined using the coupled colorimetric method as described for monoamine oxidase, copper-containing amine oxidases and related enzymes (Holt A. and Palcic M., A peroxidase-coupled continuous absorbance plate-reader assay for flavin monoamine oxidases, copper-containing amine oxidases and related enzymes. Nat Protoc 2006; 1: 2498-2505). Briefly, a cloned cDNA template corresponding to residues 34-763 of human SSAO/VAP-1, and incorporating a mouse Ig kappa (κ) signal sequence, N-terminal flag epitope tag and tobacco etch virus (TEV) cleavage site, was assembled in a mammalian expression vector (pLO-CMV) by Geneart AG. This vector containing human SSAO/VAP-1 residues was transfected into CHO-K1 glycosylation mutant cell line, Lec 8. A clone stably expressing human SSAO/VAP-1 was isolated and cultured in large scale. Active human SSAO/VAP-I was purified and recovered using immunoaffinity chromatography. This was used as the source for SSAO/VAP-1 activity. A high-throughput colorimetric assay was developed using either 96 or 384 well format. Briefly, in a standard 96 well plate assay 50 μL of purified human SSAO/VAP-1 (0.25 μg/mL) in 0.1 M sodium phosphate buffer (pH 7.4) was added into each well. Test compounds were dissolved in DMSO and tested in a Concentration Response Curve (CRC) with 4-11 data points, typically in the micromolar or nanomolar range after incubation with human SSAO/VAP-1 for 30 min at 37° C. After 30 min incubation, 50 μL of the reaction mixture containing 600 μM benzylamine (Sigma Aldrich), 120 μM Amplex Red (Sigma Aldrich) and 1.5 U/mL horseradish peroxidase (Sigma Aldrich) prepared in 0.1 M sodium phosphate buffer (pH 7.4) were added to the corresponding well. The fluorescence unit (RFU) was read every 2.5 min for 30 min at 37° C. excitation 565 nm and emission 590 (Optima; BMG labtech). The slope of the kinetics for each well was calculated using MARS data analysis software (BMG labtech) and this value was used to deduce the IC50 value (Dotmatics).

IC50 (Bovine LOX) [µM] | IC50 [1] [µM] | Compound
< 10 | > 30 | Cc1nn(Cc2cc(F)c(S(=O)(=O)N(C)C)cc2F)c(C)c1C/C(F)=C/CN [Compound 25, (Z)-4-((4-(4-amino-2-fluorobut-2-en-1-yl)-3,5-dimethyl-1H-pyrazol-1-yl)methyl)-2,5-difluoro-N,N-dimethylbenzenesulfonamide hydrochloride]
< 10 | < 10 | Cc1nn(Cc2ccc(S(=O)(=O)N(C)C)cc2)c(C)c1C/C(F)=C/CN [Compound 10, (Z)-4-((4-(4-amino-2-fluorobut-2-en-1-yl)-3,5-dimethyl-1H-pyrazol-1-yl)methyl)-N,N-dimethylbenzenesulfonamide hydrochloride]
< 10 | > 30 | Cc1nn(C/C(F)=C/CN)c(C)c1Cc1ccc(S(=O)(=O)N(C)C)cc1 [Compound 2, (Z)-4-((1-(4-amino-2-fluorobut-2-en-1-yl)-3,5-dimethyl-1H-pyrazol-4-yl)methyl)-N,N-dimethylbenzenesulfonamide hydrochloride]
< 10 | > 30 | Cc1nn(Cc2ccc(S(C)(=O)=O)c(Cl)c2)c(C)c1C/C(F)=C/CN [Compound 24, (Z)-4-(1-(3-chloro-4-(methylsulfonyl)benzyl)-3,5-dimethyl-1H-pyrazol-4-yl)-3-fluorobut-2-en-1-amine hydrochloride]
< 10 | > 30 | Cc1nn(C/C(F)=C/CN)c(C)c1Cc1ccc(S(=O)(=O)N(C)C)cc1Cl [Compound 3, (Z)-4-((1-(4-amino-2-fluorobut-2-en-1-yl)-3,5-dimethyl-1H-pyrazol-4-yl)methyl)-3-chloro-N,N-dimethylbenzenesulfonamide hydrochloride]

The next lines start with the compound.

Compound | IC50 (Bovine LOX) [µM] | IC50 [1] [µM]
CC(C)c1nn(C/C(F)=C/CN)c(C(C)C)c1Cc1ccc(S(=O)(=O)N(C)C)c(Cl)c1 [Compound 60, (Z)-4-((1-(4-amino-2-fluorobut-2-en-1-yl)-3,5-diisopropyl-1H-pyrazol-4-yl)methyl)-2-chloro-N,N-dimethylbenzenesulfonamide hydrochloride] | < 10 | > 30
Cc1nn(C/C(F)=C/CN)c(C)c1Cc1ccc(S(=O)(=O)N(C)C)c(Cl)c1 [Compound 15, (Z)-4-((1-(4-amino-2-fluorobut-2-en-1-yl)-3,5-dimethyl-1H-pyrazol-4-yl)methyl)-2-chloro-N,N-dimethylbenzenesulfonamide hydrochloride] | < 10 | < 10
Cc1nn(C/C(F)=C/CN)c(C(C)O)c1Cc1ccc(S(=O)(=O)N(C)C)c(Cl)c1 (single isomer, unassigned) [Compound 53, (Z)-4-((1-(4-amino-2-fluorobut-2-en-1-yl)-5-(1-hydroxyethyl)-3-methyl-1H-pyrazol-4-yl)methyl)-2-chloro-N,N-dimethylbenzenesulfonamide hydrochloride] | > 10 | > 30
Cc1nn(C/C(F)=C/CN)c(C)c1Cc1ccc(C(=O)N(C)C)cc1 [Compound 14, (Z)-4-((1-(4-amino-2-fluorobut-2-en-1-yl)-3,5-dimethyl-1H-pyrazol-4-yl)methyl)-N,N-dimethylbenzamide hydrochloride] | < 10 | > 30
Cc1nn(C/C(F)=C/CN)c(C)c1Cc1ccc(S(=O)(=O)N(C)C(C)C)cc1 [Compound 8, (Z)-4-((1-(4-amino-2-fluorobut-2-en-1-yl)-3,5-dimethyl-1H-pyrazol-4-yl)methyl)-N-isopropyl-N-methylbenzenesulfonamide hydrochloride] | < 10 | > 10
